Read-outs that look alike come from different tables or passages of the source.
What was measured:
[1] = tested on: CT26 colon carcinoma; experiment: CT26 colon carcinoma xenograft in immunodeficient BALB/c nude mice; format: in vivo, mouse; conditions: BALB/c nude mice, 25 mg/kg i.p, vs vehicle
Procedure: Eight-week-old male BALB/c nude mice, weighing 18–22 g, were supplied by Model Animal Research Centre of Nanjing University (Nanjing, China). 1 × 10^7/ml and 1 × 10^6 CT26 cells (in 0.1 ml PBS) were injected subcutaneously into the right flanks of mice. After CT26 xenograft BALB/c nude mouse model was established, all mice were randomly divided into three groups (n = 8). 5d (12.5 mg/kg) were administered (i.g) every day and 5-FU (25 mg/kg) awere administered (i.p) every three days. The following experimental procedures were similar to the described above.
(§1) For immunohistochemistry staining, the sections were deparaffinized, rehydrated, and washed in 1% PBS-Tween 20, and then treated with 2% hydrogen peroxide, blocked with 3% goat serum (Life Technology, 16210–064) and incubated for 2 h at room temperature with specific primary antibodies. Then the slides were incubated with streptavidin-HRP (Shanghai Gene Company, GK500705) for 40 min, then stained with DAB (Shanghai Gene Company, GK500705) substrate and counter-stained with haematoxylin. Images were acquired by microscopy (Olympus IX51).
Then, in order to clarify whether the in vivo antitumour efficacy of compound 5d was related to the mouse immune system, we repeated the above experiment in immunodeficient nude mice. Briefly, BALB/c nude mice bearing established CT26 colon carcinoma xenograft were treated with compound 5d and 5-FU for 10 days.
Figure 8. […] 1 × 10^6 CT26 cells were transplanted subcutaneously into the armpit of immunodeficient BALB/c nude mice. Three days after transplantation, mice were randomly allocated to vehicle control or treatment groups (n = 8). Drugs were administered on days 1–9. (A) Tumour volume and mouse body weight (B) were recorded. After sacrifice, solid tumours were separated and weighed (C, D). Data represent mean ± SEM, n = 8, *p < 0.05, **p < 0.01 vs vehicle.
To verify the above conclusions, we further performed H&E and IHC staining on the nude mouse CT26 tumour tissues. […] These findings further supported the above conclusions.

[2] = tested on: CT26 colon carcinoma; experiment: CT26 colon carcinoma xenograft in immunocompetent BALB/c mice (tumour growth, H&E, IHC, TUNEL, spleen FACS); format: in vivo; conditions: CT26 tumour tissue, BALB/c mice, 25 mg/kg i.p
Procedure: BALB/c mice (6–8 weeks old, 18–22 g) were supplied by Model Animal Research Centre of Nanjing University (Nanjing, China). Mice were maintained under standard specific-pathogen-free (SPF) conditions (21 ± 2 °C and 12-h light: dark cycle). Animal welfare and experimental procedures were carried out strictly in accordance with the Guide for the Care and Use of Laboratory Animals (The Ministry of Science and Technology of China, 2006) and the related ethical regulations of our university. All efforts were made to minimise animals’ suffering and to reduce the number of animals used. Mouse colon cancer cells (CT26) and melanoma cells (B16F1) were cultured and collected by centrifugation (1000 rpm, 5 min) and washed twice with ice-cold PBS. Then cells were diluted to 1 × 10^7/ml and 1 × 10^6 CT26/B16F1 cells (in 0.1 ml PBS) were injected subcutaneously into the right flanks of mice. All mice formed tumours three days after injection. Then mice were randomly distributed into five groups (n = 10/8) according to tumour volumes. 5d ([…], 12.5 mg/kg) were administered (i.g) to each group respectively every day. 5-FU (25 mg/kg) and Cis-platinum (1 mg/kg) were administered (i.p) every three days. Tumour length and tumour width were measured with a Vernier calliper every three days. Tumour volumes were measured and calculated using the equation volume = a × b^2/2, where “a” is the maximal […] and “b” is maximal orthogonal width. After the administration were completed, mice were weighed, euthanized, and tumours were removed and the weight were taken.
as §1
Given that it was the most prominent inhibitor in vitro, we chose compound 5d for further pharmacodynamic evaluation in vivo. Bowel cancer is the third leading cause of cancer in the world, thus we first evaluated the efficacy of compound 5d on the growth of murine CT26 colon carcinoma xenograft model in immunocompetent BALB/c mice. Fluorouracil (5-FU) is one of the most commonly used drugs to different cancers including bowel cancer, and was used as the positive control. The CT26 tumour-bearing mice were treated with 5d (3.125, 6.25, 12.5 mg/kg, i.g, every day) or 5-FU (25 mg/kg, i.p, […]). Tumour volumes were measured every two days for 14 days.
Figure 7. Compound 5d suppressed colon cancer growth in immunocompetent mice. 1 × 10^6 CT26 cells were transplanted subcutaneously into the armpit of the BALB/c mice. Three days after transplantation, mice were randomly allocated to vehicle control or treatment groups (n = 10). Drugs were administered on days 1–14. Tumour volume (A) and mice body weight (B) were recorded. After sacrifice, solid tumours were separated and weighed (C, D). Data represent mean ± SEM, n = 10, *p < 0.05, **p < 0.01 vs vehicle.
In order to further observe morphological changes in tumour tissues after administration of compound 5d, the tumour tissue sections obtained from the BALB/c mice bearing CT26 colorectal tumours were stained with haematoxylin-eosin (H&E) to highlight different tissue structures, such as the nucleus and cytoplasm.
Then, to understand the mechanism of tumour cell death, we detected the level of proliferating cell nuclear antigen (PCNA) protein and tumour cell apoptosis by immunohistochemistry (IHC) and terminal deoxynucleotidyl transferase dUTP nick end labelling (TUNEL) experiments, respectively. […]

[3] = molecular target: T1, IDO1 (Homo sapiens, UniProt P14902); experiment: HeLa cell-based IDO1/kynurenine assay; conditions: for IC50: HeLa cells, IFN-γ induced IDO1, kynurenine readout; for inhibition at 30 µM: percentage inhibition at 30 μM, IFN-γ-treated HeLa cells, kynurenine in media; for potency increase as compared with the hit BS-1: ratio of HeLa IC50 values
T1 construct: a human cervical cancer cell line HeLa that endogenously expresses IDO1 upon IFN-γ treatment; endogenous in cells; host or cells: HeLa cells treated with human IFN-γ
Procedure: (§2) The main bioassays performed in the study, including HeLa cell-based IDO1/kynurenine assay, Western blot analysis, T cell proliferation and Treg cell differentiation experiments, were carried out as described previously.
It is well known that IDO1 is broadly expressed in human cancers and is induced by pro-inflammatory cytokines, such as interferon gamma (IFN-γ) and tumour necrosis factor alpha (TNF-α)[41]. Here we utilised a human cervical cancer cell line HeLa that endogenously expresses IDO1 upon IFN-γ treatment to evaluate the IDO1 inhibitory activity of the synthesised compounds by measuring kynurenine secreted into the media. […] Thus, we also employed this cellular assay to detect false positive IDO1 inhibitors and cytotoxic compounds by measuring HeLa cell viability. Clinical candidate navoximod was used as an assay control.

[4] = tested on: IDO1 protein expression; experiment: Western blot of IDO1 protein expression in IFN-γ-treated HeLa cells; format: cell-based, human; conditions: HeLa cells, IFN-γ 100 ng/mL 24 h, then compounds at their IC50 concentrations for 24 h
Procedure: as §2
To exclude the possibility that these secondary sulphonamides inhibit IDO1 activity by down-regulating IDO1 expression, we utilised Western blot to measure the expression of IDO1 protein in HeLa cells treated with different compounds.
Figure 3. […] (B) The greyscale scanning statistical results of A. (C) HeLa cells were incubated with compound 5d (3, 10, 30 μM) for 24 h. (D) The greyscale scanning statistical results of C. (E) HeLa cells were incubated with compound 5d (3, 10, 30 μM) for 48 h. (F) The greyscale scanning statistical results of E. Data are presented as means ± SEM (n = 3).

[5] = tested on: HeLa cells; experiment: HeLa cell viability by MTT at the end of the IDO1/kynurenine assay; format: cell-based, human; conditions: under the experimental conditions of the IDO1 assay
From the text: It is well known that IDO1 is broadly expressed in human cancers and is induced by pro-inflammatory cytokines, such as interferon gamma (IFN-γ) and tumour necrosis factor alpha (TNF-α)[41]. Here we utilised a human cervical cancer cell line HeLa that endogenously expresses IDO1 upon IFN-γ treatment to evaluate the IDO1 inhibitory activity of the synthesised compounds by measuring kynurenine secreted into the media. This cell-based assay, as a rapid and simple method for determination IDO1/kynurenine, is closely related to the potency of the enzyme assay and has been widely used to identify various IDO1 inhibitors[19]^,[23]^,[29]^,[42]. In addition, cytotoxic compounds can reduce cell viability, which will decrease the IDO1 levels and then lower the conversion of tryptophan to kynurenine. Thus, we also employed this cellular assay to detect false positive IDO1 inhibitors and cytotoxic compounds by measuring HeLa cell viability. Clinical candidate navoximod was used as an assay control.
Furthermore, the viability of HeLa cells was evaluated by the MTT method at the end of the assay.

[6] = tested on: naïve CD4+ T cells co-cultured with B16F1 cells; experiment: FoxP3+ Treg cell differentiation in B16F1-T cell co-culture (flow cytometry); format: cell-based, mouse; conditions: for FoxP3+ Treg cell differentiation (in words): Con A, 48 h
Procedure: as §2
Besides causing local tryptophan depletion, high IDO1 expression can also accumulate metabolites of kynurenine pathway. The elevated metabolites can not only induce effector T cell death directly through their cytotoxicity, but also promote the differentiation of naïve CD4^+ T cells into CD4^+ FoxP3^+ Treg cells by activating the AHR pathway. As a highly immunosuppressive subset of CD4^+ T cells, FoxP3^+ Treg cells are critical to the maintenance of immune homeostasis and are involved in tumour immune escape, thereby contributing to tumour development and progression. Therefore, we also utilised co-culture of B16F1 cells with naïve CD4^+ T cells to test whether the synthesised compounds could suppress IDO1 mediated Treg cell differentiation.
Figure 5. Compounds 5d and 8 g inhibited Treg cell differentiation in the cell co-culture system. (A) After co-cultured with B16F1 cells, T cells were collected. Surface staining was performed with CD4^+ FTTC and CD25^+ PE for 30 min at 4 °C. The cells were fixed and permeabilized with fixation buffer and permeabilization wash buffer. The intracellular staining was performed with FoxP3^+ APC for 20 min. The cells were then analysed by flow cytometry analysis. (B) Statistical analysis of result A. Data are represented as ± SEM (n = 3). *p < 0.05, **p < 0.01 vs T + B16F1. TEXT PRINTED IN THE PICTURE: (A) Navoximod: 8.1% (T + B16F1; 1.5 μM) | (A) 8g: 7.8% (T + B16F1; 18 μM) | (A) 5d: 2.1% (T + B16F1; 18 μM)

[7] = tested on: naïve CD4+ T cells co-cultured with B16F1 melanoma cells; experiment: T cell proliferation in B16F1-T cell co-culture (MTT); format: cell-based, mouse
Procedure: as §2
T lymphocytes are exceedingly sensitive to low tryptophan levels. Overactivation of the kynurenine pathway by high IDO1 expression leads to local tryptophan depletion, which can suppress T cell proliferation by activating the GCN2 kinase pathway and eventually result in T cell anergy. Here, to determine whether secondary sulphonamides could rescue IDO1-mediated blockade of T cell proliferation, we used a co-culture of IDO1-expressing B16F1 melanoma cells with naïve CD4^+ T cells to mimic the tumour microenvironment. Given that melanoma is a highly immunogenic tumour and IDO1 constitutively expresses in melanoma cells, B16F1 murine melanoma cell lines that express IDO1 were then used to co-culture with T cells. Naïve CD4^+ T cells were isolated from spleens of C57BL/6 mice.
Figure 4. Compounds 5d and 8 g could promote the proliferation of T cells. Based on the B16F1-T cell co-culture system, use MTT assay to test T cells proliferation. The Navoximod and compounds were added to the system at the concentration of 1.5 and 18 μM. Data represent mean ± SEM (n = 3).

[8] = molecular target: T1, IDO1; design: method as in earlier work; conditions: HeLa cell assay; earlier series of N-acetyl secondary sulphonamides; cited from earlier work

T1 sequence (P14902 whole entry): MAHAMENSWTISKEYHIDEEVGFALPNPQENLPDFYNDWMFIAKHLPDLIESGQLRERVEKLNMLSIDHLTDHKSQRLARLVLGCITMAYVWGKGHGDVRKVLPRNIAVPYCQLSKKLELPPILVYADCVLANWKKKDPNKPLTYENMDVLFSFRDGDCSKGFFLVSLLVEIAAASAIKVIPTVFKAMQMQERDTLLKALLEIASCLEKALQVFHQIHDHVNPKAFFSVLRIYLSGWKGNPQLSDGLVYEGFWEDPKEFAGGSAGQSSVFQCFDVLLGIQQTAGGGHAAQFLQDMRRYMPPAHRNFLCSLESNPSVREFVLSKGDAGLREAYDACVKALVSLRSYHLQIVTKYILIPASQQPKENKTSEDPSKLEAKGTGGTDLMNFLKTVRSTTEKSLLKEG

With `O=c1[nH]cc(F)c(=O)[nH]1` [5-FU, Fluorouracil, reference compound] the tumour growth [1] was “significantly suppressed tumour growth”, the “expression of PCNA protein (IHC)” value [2] was “significantly reduced” and the “number of tumour cells (H&E staining)” value [2] was “significantly reduced”. For the same compound, the “tumour cell apoptosis (TUNEL)” value [2] was “apoptosis increased”.
For `C=CC(=O)Nc1ccc(S(=O)(=O)NCc2cccc(Br)c2)cc1` [5l, N-(4-(N-(3-Bromobenzyl)sulfamoyl)phenyl)acrylamide], the IC50 [3] was 6.64 µM, the inhibition at 30 µM [3] was 89.1% and the “potency increase as compared with the hit BS-1” value (“potency increase” for short) [3] was 7.4 fold. For the same compound, the “expression of IDO1 protein” value [4] was “did not influence IDO1 expression”, the melting point was 156 to 158 °C and the HeLa cell viability [5] was “without affecting the cell viability”.
With `C=CC(=O)Nc1ccc(S(=O)(=O)Nc2ccc(F)c(Cl)c2)cc1` [8g, N-(4-(N-(3-Chloro-4-fluorophenyl)sulfamoyl)phenyl)acrylamide] the IC50 [3] was 3.76 µM, the inhibition at 30 µM [3] was 93.2% and the “potency increase” value [3] was 13.1 fold. For the same compound, the “expression of IDO1 protein” value [4] was “did not influence IDO1 expression”, the “FoxP3+ Treg cells (flow cytometry)” value ([6]; 18 μM) was 7.8% and the “FoxP3+ Treg cell differentiation (in words)” value ([6]; 18 μM) was “significantly reduce FoxP3^+ Treg cell differentiation”. For the same compound, the T cell proliferation ([7]; 18 μM) was “significant augmentation on T cell activity” and the HeLa cell viability [5] was “without affecting the cell viability”.
For `COc1ccc(CNS(=O)(=O)c2ccc(NC(C)=O)cc2)cc1` [N-(4-(N-(4-methoxybenzyl)sulfamoyl)phenyl)acetamide, reference compound], the IC50 [8] is listed as 5.88 µM and the “potency increase” value [3] is listed as 8.4 fold.
For `O[C@H](C[C@H]1c2c(F)cccc2-c2cncn21)[C@H]1CC[C@H](O)CC1` [Navoximod, (1R,4r)-4-((R)-2-((S)-6-fluoro-5H-imidazo[5,1-a]isoindol-5-yl)-1-hydroxyethyl)cyclohexan-1-ol, reference compound], the “FoxP3+ Treg cells (flow cytometry)” value ([6]; 1.5 μM) was 8.1%, the “FoxP3+ Treg cell differentiation (in words)” value ([6]; 1.5 μM) was “significantly reduce FoxP3^+ Treg cell differentiation” and the T cell proliferation ([7]; 1.5 μM) was “significant augmentation on T cell activity”.

Source: publication PMC7336998, “Discovery of secondary sulphonamides as IDO1 inhibitors with potent antitumour effects in vivo” (Journal of Enzyme Inhibition and Medicinal Chemistry, 2020)
